# Measurements reported in patent US11578083B2, “Pyrimidinium compounds and their mixtures for combating animal pests” (BASF SE, priority 2017, dated 2023).
# System: green peach aphid (Myzus persicae)
# Test: Test 2 green peach aphid, artificial diet (mixtures)
# Format: in vivo
# Description: For evaluating control of green peach aphid (Myzus persicae) through systemic means the test unit consisted of 96-well-microtiter plates containing liquid artificial diet under an artificial membrane.
# The compounds or mixtures were formulated using a solution containing 75% water and 25% DMSO. Concentrations of formulated compounds or mixtures were pipetted into the aphid diet, using a custom built pipetter, at two replications.
# For experimental mixtures in these tests identical volumes of both mixing partners at the desired concentrations respectively, were mixed together.
# After application, 5-8 adult aphids were placed on the artificial membrane inside the microtiter plate wells. The aphids were then allowed to suck on the treated aphid diet and incubated at 23±1° C., 50±5% RH for 3 days. Aphid mortality and fecundity was then visually assessed.
smiles,measurement,setting,value
"C[n+]1c([O-])c(-c2ccccc2)c(=O)n2c1SC[C@@H]2c1cnc(Cl)s1 [I-R-1, (3R)-3-(2-chlorothiazol-5-yl)-8-methyl-7-oxo-6-phenyl-2,3-dihydrothiazolo[3,2-a]pyrimidin-4-ium-5-olate]",Average control %,"Table 2.1, solo application I-R-1, use rate 2 ppm",25%
same,Average control %,"Table 2.2, solo application I-R-1, use rate 2 ppm",0%
same,Average control %,"Table 2.3, solo application I-R-1, use rate 0.4 ppm",50%
same,Average control %,"Table 2.4, solo application I-R-1, use rate 50 ppm",0%
same,Average control %,"Table 2.5, solo application I-R-1, use rate 2 ppm",50%
same,Average control %,"Table 2.6, solo application I-R-1, use rate 2 ppm",25%
